This is an account of results in patent publication EP3219329A1, “COMBINATIONS OF COPANLISIB” (Bayer Pharma Aktiengesellschaft, priority 2016, dated 2017).

In the series the test system is primary (PDX) human lymphoma model LY2298. As to the kind of experiment: In vivo B cell lymphoma xenograft model (PDX). The text has this:
Anti-tumor activity of cpd. B has been analyzed in murine xenograft models. For that purpose tumor fragments from stock mice inoculated with primary human lymphoma tissue were harvested and used for inoculation into female NOD/SCID mice. Each mouse was inoculated subcutaneously at the right flank with primary (PDX) human lymphoma model LY2298 fragment (P7, 2-4 mm in diameter) for tumor development. The treatment was started when the average tumor size reached about 158 mm^3. Mice were allocated randomly into experimental groups according to their tumor sizes, 10 mice per group. The day was denoted as day 0. Treatments were administrated to tumor-bearing mice from day 1 through day 34. Treatment groups were: vehicle control, cpd. B monotherapy, cpd. A monotherapy and combination of cpd. B and cpd A (Table C). Body weights were determined twice per week. Changes in body weight were depicted as treatment related toxicities (>10% stop treatment, >20% termination). Tumor sizes were measured twice weekly in two dimensions using a caliper, and the volume is expressed in mm^3 using the formula: V = 0.5 a x b^2, where a and b are the long and short diameters of the tumor, respectively. The T/C value is an indicator of tumor response to treatment and commonly used as anti-tumor activity endpoint. T and C are the mean tumor volume of the treated and control groups, respectively. Statistical analysis of difference in tumor volume among the groups was evaluated using one-way ANOVA followed by pairweise comparison procedures (Dunett method). P < 0.05 was considered to be statistically significant.
B in monotherapy and combination therapy with cpd. A during treatment of human LY2298 ABC-DLBCL tumors. Cpd. B has been applied orally upon a dose of 20 mg/kg once daily. Cpd. A was applied intraveneously for 2 days followd by a 5 day treatment break upon a dose of 14 mg/kg. Cpd. […] Cpd. […] TABLE C: Anti-Tumor activity of cpd. B in monotherapy and combination with cpd. A in LY2298 PDX model in NOD/SCID mice.

Turning to `COc1c(OCCCN2CCOCC2)ccc2c1N=C(NC(=O)c1cnc(N)nc1)N1CCN=C21.Cl.Cl` [cpd. A, 2-amino-N-[7-methoxy-8-(3-morpholin-4-ylpropoxy)-2,3-dihydroimid-azo[1,2-c]quinazolin-5-yl]pyrimidine-5-carboxamide dihydrochloride], the “Max. body weight loss (%)” value (LY2298 PDX in NOD/SCID mice, cpd. B 20 mg/kg QD p.o., cpd. A 14 mg/kg QD 2on/5off i.v., maximum mean loss as percent of starting weight) was -5%. The “T/C Volume (at day 20)” value (LY2298 PDX in NOD/SCID mice, cpd. B 20 mg/kg QD p.o., cpd. A 14 mg/kg QD 2on/5off i.v., mean tumor volume treated/control, * P<0.05 vs. Vehicle) is 0.22*. For the same compound, the “Response (at termination)” value (LY2298 PDX in NOD/SCID mice, cpd. B 20 mg/kg QD p.o., cpd. A 14 mg/kg QD 2on/5off i.v., number of tumors per response class, 10 mice per group) is listed as 7x PD, 1x SD, 1x PR, 1x CR. For the same compound, the anti-tumor activity result (human LY2298 ABC-DLBCL tumors, cpd. B 20 mg/kg once daily orally, cpd. A 14 mg/kg i.v. 2 days on, 5 days break, result in words) is “initially a strong anti-tumor activity but after 20 treatment days a clear tumor relapse”.
